According to patent US10328012B2, “Methods for treating skin” (AVON PRODUCTS, INC., priority 2015, dated 2019):
“Also recorded” adds a separate entry of the source.

How the values were obtained:
[1] = test system: Human dermal fibroblast cells; assay: Pro-collagen I secreted by human dermal fibroblasts, HTRF human pro-collagen I kit (Example 1); format: cell-based; conditions: 0.0001% phytol alone or 1 μM retinol alone for 16 days; decline after day 13 despite continuing treatment
Experimental: Human dermal fibroblast cells were grown in a 6-well plate in DMEM media (available from CORNING, N.Y.) supplemented with 10% Fetal Bovine Serum (FBS) and L-glutamine (1.5×10^5 cells/plate) overnight. After reaching about 75% confluence, cells were transferred into DMEM media without FBS and incubated for 4-6 hours. Next, the cells were treated with either 0.0001% phytol or 1 μM retinol. Treatment with either phytol alone, or retinol alone was performed in DMEM media without FBS for 16 days. For sequential treatments, the cells were treated with 0.0001% phytol for 6 days followed by 1 μM retinol for 10 days, or with 1 μM retinol for 6 days, followed by 0.0001% phytol for 10 days. Every other day, media were collected and cells were re-treated with phytol or retinol in the same fashion. After treatment, the amount of collagen secreted into the culture media was determined using the HTRF human pro-collagen I kit (available from CISBIO, Inc).

[2] = test system: human dermal fibroblast (HDF) cells; assay: HA in human dermal fibroblasts, daily vs pulsed treatment (Example 17); format: cell-based; conditions: 12 days; pulsed uses half as much active
Experimental: A series of experiments was conducted to assess the effects of different treatment regimens of active ingredients shown in Table 9 on the production of hyaluronic acid (HA) in human dermal fibroblast (HDF) cells. Two different treatment regimens were assessed: (1) active ingredient A applied to cells for 12 consecutive days; and (2) active ingredient applied to cells for 2 consecutive days followed by application of media not containing active ingredient for two consecutive days repeatedly until treatment is applied for 12 consecutive days. […] After reaching about 75% confluence, cells were transferred into DMEM media without FBS, and incubated for 4-6 hours. Different wells were assigned to one of treatment regimens (1)-(2) as described above, with six wells allocated to each treatment regimen. All active ingredients were prepared as emulsions and applied directly to the HDF cells. The specific active ingredients used in each of the two treatment regimens are provided below in Table 10. Following treatment, cells were collected and the amount of hyaluronic acid (HA) secreted from the cells was measured using a commercially available HA assay (available from […] Inc., CO).

SMILES | pro-collagen I production as a function of treatment time [1] | production of hyaluronic acid, pulsed treatment compared with daily treatment [2]
CC1=C(/C=C/C(C)=C/C=C/C(C)=C/CO)C(C)(C)CCC1 [Retinol, reference compound] | declines; also recorded: plateau in effectiveness over time | significantly more production of hyaluronic acid
C/C(=C\CO)CCC[C@H](C)CCC[C@H](C)CCCC(C)C [Phytol] | declines; also recorded: plateau in effectiveness over time | significantly more production of hyaluronic acid
O=C(O)CO [Glycolic Acid] | – | only slightly less effective
